Earlier results, collected in US20230210112A1, “METHOD FOR GROWING PLANTS” (Taminco BV, priority 2020, published 2023).

What was measured:
pests = conditions: in vivo
Tomato plants = conditions: treated tomato seedlings
cauliflower seedlings = conditions: 20 mM BABA

Row | Compound | Effect on plant growth or development (in words) (pests) | Resistance-inducing activity (in words) (pests) | Concentration at which root growth repression was observed (as low as) (Tomato plants) | Reduction in growth of cauliflower seedlings (cauliflower seedlings)
1 | N[C@@H](CO)CC(=O)O [(R)-beta-homoserine] | without affecting plant growth or development | strong resistance-inducing activity | – | –
2 | CC/C=C\C[C@H]1C(=O)CC[C@@H]1CC(=O)O [JA, jasmonic acid] | – | – | 250 µM | –
3 | CC(N)CC(=O)O (stereo not drawn) [BABA, beta-aminobutyric acid] | – | – | 500 µM | 14.7%
